Assay results: PubChem BioAssay AID2060485 (Molecular Pharmacology Branch, DTP, NCI, 2025)

System: A375 multi-cell spheroids with HUVEC/MSC, viability
Assay: Anticancer human tumor A375 cell line growth inhibition [GQUAD];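 note: spheroids exposed to compounds for seven days before readout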
Conditions: for IC50: curve of first compound; for viability, T/C: stronger effect = lower value
In short: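 Tumor cells were grown as complex spheroids with HUVEC endothelial cells and mesenchymal stem cells as stroma. G-quadruplex stabilizers were combined with targeted agents over half-log dilutions from near the clinical Cmax, or from 10 microM.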

[1] = second compound 0.0316 µM, first compound 0.0316 µM
[2] = second compound 0.0316 µM, first compound 0.1 µM
[3] = second compound 0.0316 µM, first compound 0.316 µM
[4] = second compound 0.0316 µM, first compound 1 µM
[5] = second compound 0.0316 µM, first compound 3.16 µM
[6] = second compound 0.0316 µM, first compound 10 µM
[7] = second compound 0.1 µM, first compound 0.0316 µM
[8] = second compound 0.1 µM, first compound 0.1 µM
[9] = second compound 0.1 µM, first compound 0.316 µM
[10] = second compound 0.1 µM, first compound 1 µM
[11] = second compound 0.1 µM, first compound 3.16 µM
[12] = second compound 0.1 µM, first compound 10 µM
[13] = second compound 0.316 µM, first compound 0.0316 µM
[14] = second compound 0.316 µM, first compound 0.1 µM
[15] = second compound 0.316 µM, first compound 0.316 µM
[16] = second compound 0.316 µM, first compound 1 µM
[17] = second compound 0.316 µM, first compound 3.16 µM
[18] = second compound 0.316 µM, first compound 10 µM
[19] = second compound 1 µM, first compound 0.0316 µM
[20] = second compound 1 µM, first compound 0.1 µM
[21] = second compound 1 µM, first compound 0.316 µM
[22] = second compound 1 µM, first compound 1 µM
[23] = second compound 1 µM, first compound 3.16 µM
[24] = second compound 1 µM, first compound 10 µM
[25] = second compound 3.16 µM, first compound 0.0316 µM
[26] = second compound 3.16 µM, first compound 0.1 µM
[27] = second compound 3.16 µM, first compound 0.316 µM
[28] = second compound 3.16 µM, first compound 1 µM
[29] = second compound 3.16 µM, first compound 3.16 µM
[30] = second compound 3.16 µM, first compound 10 µM
[31] = second compound 10 µM, first compound 0.0316 µM
[32] = second compound 10 µM, first compound 0.1 µM
[33] = second compound 10 µM, first compound 0.316 µM
[34] = second compound 10 µM, first compound 1 µM
[35] = second compound 10 µM, first compound 3.16 µM
[36] = second compound 10 µM, first compound 10 µM

SMILES: O=c1[nH]cc(F)c(=O)[nH]1 + Cc1[nH]c2ccc(F)cc2c1-c1nc2c3cccnc3c3ncccc3c2[nH]1
- IC50 (second compound 0.0316 µM): > 10 µM
- IC50 (second compound 0.1 µM): > 10 µM
- IC50 (second compound 0.316 µM): > 10 µM
- IC50 (second compound 1 µM): > 10 µM
- IC50 (second compound 3.16 µM): > 10 µM
- IC50 (second compound 10 µM): > 10 µM
- viability, T/C [1]: 102%
- viability, T/C [2]: 99%
- viability, T/C [3]: 109%
- viability, T/C [4]: 105%
- viability, T/C [5]: 97.9%
- viability, T/C [6]: 92.9%
- viability, T/C [7]: 106%
- viability, T/C [8]: 93.2%
- viability, T/C [9]: 105%
- viability, T/C [10]: 114%
- viability, T/C [11]: 103%
- viability, T/C [12]: 101%
- viability, T/C [13]: 96%
- viability, T/C [14]: 92.9%
- viability, T/C [15]: 102%
- viability, T/C [16]: 95.2%
- viability, T/C [17]: 112%
- viability, T/C [18]: 103%
- viability, T/C [19]: 101%
- viability, T/C [20]: 103%
- viability, T/C [21]: 111%
- viability, T/C [22]: 97.6%
- viability, T/C [23]: 115%
- viability, T/C [24]: 102%
- viability, T/C [25]: 83.9%
- viability, T/C [26]: 90.9%
- viability, T/C [27]: 93.6%
- viability, T/C [28]: 88.4%
- viability, T/C [29]: 101%
- viability, T/C [30]: 80.3%
- viability, T/C [31]: 88.2%
- viability, T/C [32]: 81.6%
- viability, T/C [33]: 111%
- viability, T/C [34]: 104%
- viability, T/C [35]: 96.3%
- viability, T/C [36]: 77.4%

SMILES: Nc1ccn(C2OC(CO)C(O)C2(F)F)c(=O)n1 (stereo not drawn) + Cc1[nH]c2ccc(F)cc2c1-c1nc2c3cccnc3c3ncccc3c2[nH]1
- IC50 (second compound 0.0316 µM): < 0.0316 µM
- IC50 (second compound 0.1 µM): < 0.0316 µM
- IC50 (second compound 0.316 µM): < 0.0316 µM
- IC50 (second compound 1 µM): < 0.0316 µM
- IC50 (second compound 3.16 µM): < 0.0316 µM
- IC50 (second compound 10 µM): < 0.0316 µM
- viability, T/C [1]: 20.4%
- viability, T/C [2]: 11%
- viability, T/C [3]: 10.3%
- viability, T/C [4]: 8.14%
- viability, T/C [5]: 10.7%
- viability, T/C [6]: 10.2%
- viability, T/C [7]: 22.9%
- viability, T/C [8]: 9.94%
- viability, T/C [9]: 12%
- viability, T/C [10]: 9.5%
- viability, T/C [11]: 12.2%
- viability, T/C [12]: 8.91%
- viability, T/C [13]: 21.1%
- viability, T/C [14]: 12.7%
- viability, T/C [15]: 11.2%
- viability, T/C [16]: 10.8%
- viability, T/C [17]: 10.8%
- viability, T/C [18]: 11.3%
- viability, T/C [19]: 22.9%
- viability, T/C [20]: 12.7%
- viability, T/C [21]: 14.8%
- viability, T/C [22]: 13.6%
- viability, T/C [23]: 12.8%
- viability, T/C [24]: 11.8%
- viability, T/C [25]: 15.4%
- viability, T/C [26]: 13.1%
- viability, T/C [27]: 13%
- viability, T/C [28]: 13.9%
- viability, T/C [29]: 19%
- viability, T/C [30]: 13.9%
- viability, T/C [31]: 16.1%
- viability, T/C [32]: 10.7%
- viability, T/C [33]: 10.9%
- viability, T/C [34]: 10.3%
- viability, T/C [35]: 13.2%
- viability, T/C [36]: 12%

SMILES: CC[C@@]1(O)C(=O)OCc2c1cc1n(c2=O)Cc2cc3c(CN(C)C)c(O)ccc3nc2-1 + Cc1cnc(CNC(=O)c2c(=O)c3ccc(N4CCCN(C)CC4)nc3n3c2sc2ccccc23)cn1
- IC50 (second compound 0.0316 µM): 0.0285 µM
- IC50 (second compound 0.1 µM): 0.016 µM
- IC50 (second compound 0.316 µM): < 0.000999 µM
- IC50 (second compound 1 µM): < 0.000999 µM
- IC50 (second compound 3.16 µM): < 0.000999 µM
- IC50 (second compound 10 µM): < 0.000999 µM
- viability, T/C (second compound 0.0316 µM, first compound 0.000999 µM): 114%
- viability, T/C (second compound 0.0316 µM, first compound 0.00316 µM): 103%
- viability, T/C (second compound 0.0316 µM, first compound 0.00999 µM): 107%
- viability, T/C [1]: 44.1%
- viability, T/C (second compound 0.0316 µM, first compound 0.0999 µM): 17.8%
- viability, T/C [3]: 11.3%
- viability, T/C (second compound 0.1 µM, first compound 0.000999 µM): 76.2%
- viability, T/C (second compound 0.1 µM, first compound 0.00316 µM): 64.3%
- viability, T/C (second compound 0.1 µM, first compound 0.00999 µM): 64.3%
- viability, T/C [7]: 31.4%
- viability, T/C (second compound 0.1 µM, first compound 0.0999 µM): 20.5%
- viability, T/C [9]: 11.8%
- viability, T/C (second compound 0.316 µM, first compound 0.000999 µM): 48.6%
- viability, T/C (second compound 0.316 µM, first compound 0.00316 µM): 42.5%
- viability, T/C (second compound 0.316 µM, first compound 0.00999 µM): 45.3%
- viability, T/C [13]: 27.6%
- viability, T/C (second compound 0.316 µM, first compound 0.0999 µM): 17%
- viability, T/C [15]: 13.9%
- viability, T/C (second compound 1 µM, first compound 0.000999 µM): 39.8%
- viability, T/C (second compound 1 µM, first compound 0.00316 µM): 38.9%
- viability, T/C (second compound 1 µM, first compound 0.00999 µM): 29.9%
- viability, T/C [19]: 29.1%
- viability, T/C (second compound 1 µM, first compound 0.0999 µM): 19.1%
- viability, T/C [21]: 13%
- viability, T/C (second compound 3.16 µM, first compound 0.000999 µM): 30.5%
- viability, T/C (second compound 3.16 µM, first compound 0.00316 µM): 29.8%
- viability, T/C (second compound 3.16 µM, first compound 0.00999 µM): 30.3%
- viability, T/C [25]: 25.4%
- viability, T/C (second compound 3.16 µM, first compound 0.0999 µM): 17.6%
- viability, T/C [27]: 14.7%
- viability, T/C (second compound 10 µM, first compound 0.000999 µM): 23.6%
- viability, T/C (second compound 10 µM, first compound 0.00316 µM): 30.3%
- viability, T/C (second compound 10 µM, first compound 0.00999 µM): 30.8%
- viability, T/C [31]: 23.9%
- viability, T/C (second compound 10 µM, first compound 0.0999 µM): 18.7%
- viability, T/C [33]: 15.6%

SMILES: CC1COCCN1c1cc(C2(S(C)(=N)=O)CC2)nc(-c2ccnc3[nH]ccc23)n1 (stereo not drawn) + CN(C)c1ccc(Nc2c3ccc(NC(=O)CCN4CCCC4)cc3nc3cc(NC(=O)CCN4CCCC4)ccc23)cc1
- IC50 (second compound 0.0316 µM): 6.09 µM
- IC50 (second compound 0.1 µM): 5.86 µM
- IC50 (second compound 0.316 µM): 6.26 µM
- IC50 (second compound 1 µM): 7.3 µM
- IC50 (second compound 3.16 µM): 7.46 µM
- IC50 (second compound 10 µM): 6.4 µM
- viability, T/C [1]: 102%
- viability, T/C [2]: 105%
- viability, T/C [3]: 102%
- viability, T/C [4]: 108%
- viability, T/C [5]: 68.5%
- viability, T/C [6]: 36%
- viability, T/C [7]: 108%
- viability, T/C [8]: 104%
- viability, T/C [9]: 106%
- viability, T/C [10]: 102%
- viability, T/C [11]: 67.8%
- viability, T/C [12]: 34.5%
- viability, T/C [13]: 105%
- viability, T/C [14]: 101%
- viability, T/C [15]: 107%
- viability, T/C [16]: 107%
- viability, T/C [17]: 71.9%
- viability, T/C [18]: 35%
- viability, T/C [19]: 106%
- viability, T/C [20]: 95.7%
- viability, T/C [21]: 114%
- viability, T/C [22]: 108%
- viability, T/C [23]: 68%
- viability, T/C [24]: 43.2%
- viability, T/C [25]: 118%
- viability, T/C [26]: 95.8%
- viability, T/C [27]: 97.2%
- viability, T/C [28]: 108%
- viability, T/C [29]: 78.3%
- viability, T/C [30]: 40.3%
- viability, T/C [31]: 95.5%
- viability, T/C [32]: 98.3%
- viability, T/C [33]: 101%
- viability, T/C [34]: 96.8%
- viability, T/C [35]: 64.8%
- viability, T/C [36]: 40.6%
